Laboratory results taken from patent publication EP3266784A1, “PROTEIN ARGININE N-METHYLTRANSFERASES INHIBITORS AND USES THEREOF” (PIERRE FABRE MEDICAMENT, priority 2016, dated 2018).

How the values were obtained:
Assay type in all cases: biochemical
[1] = molecular target: human PRMT1 enzyme (Homo sapiens, UniProt Q99873); assay: PRMT1 inhibition assay (radioactive [3H]SAM methyl transfer, filter binding); details: compound at 100µM, 700 nM [3H]SAM, 50 nM Histone H4 full length, 20 min at 22°C; for inhibition at 100 µM: read-out: PRMT1 100µM, percent inhibition of the control enzyme activity
Chain of human PRMT1 enzyme (Q99873 whole entry): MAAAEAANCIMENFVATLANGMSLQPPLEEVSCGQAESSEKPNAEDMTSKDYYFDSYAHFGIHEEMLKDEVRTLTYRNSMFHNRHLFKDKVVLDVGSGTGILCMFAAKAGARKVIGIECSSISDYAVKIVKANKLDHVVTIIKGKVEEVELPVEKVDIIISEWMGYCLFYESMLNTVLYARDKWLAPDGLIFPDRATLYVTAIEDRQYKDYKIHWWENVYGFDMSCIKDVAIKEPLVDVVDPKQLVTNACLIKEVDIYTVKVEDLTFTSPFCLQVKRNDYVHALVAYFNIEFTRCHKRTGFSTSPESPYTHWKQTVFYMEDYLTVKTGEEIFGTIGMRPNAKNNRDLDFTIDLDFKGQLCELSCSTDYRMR
Procedure: (§1) The inhibitory effect of compounds on the methyltransferase activity of human PRMT was evaluated via the measurement of its capacity to transfer methyl groups in a radioactivity assay.
The test compound, reference compound, or water (control) were incubated for 20 min at 22°C with 20 ng human PRMT1 enzyme, 700 nM [^3H]SAM and 50 nM Histone H4 full length in a buffer containing 45 mM Tris-HCl (pH 8), 4.5 mM MgCl2, 45 mM NaCl and 3.6 mM DTT.
(§2) For control basal measurements, the enzyme is omitted from the reaction mixture. Following incubation, the reaction is stopped by adding 33 mM citric acid and the samples are filtered rapidly under vacuum through glass fiber filters (GF/B, Packard) presoaked with 33 mM citric acid and rinsed several times with ice-cold 33 mM citric acid using a 96-sample cell harvester (Unifilter, Packard). The filters are dried then counted for radioactivity in a scintillation counter (Topcount, Packard) using a scintillation cocktail (Microscint 0, Packard).
The results are expressed as a percent inhibition of the control enzyme activity. The standard reference compound is SAH, which is tested in each experiment at several concentrations to obtain a competition curve from which its IC50 is calculated (Cheng et al., 2004, J. Biol. Chem. 279:23892).

[2] = molecular target: human PRMT6 enzyme (Homo sapiens, UniProt Q96LA8); assay: PRMT6 inhibition assay (radioactive [3H]SAM methyl transfer, filter binding); details: 120 nM [3H]SAM, 25 nM Histone H3 full length, 120 min at 22°C; for inhibition at 10 µM: compound at 10µM, read-out: PRMT6 10µM, percent inhibition of the control enzyme activity; for inhibition at 100 µM: read-out: PRMT6 100µM, percent inhibition of the control enzyme activity
Chain of human PRMT6 enzyme (Q96LA8 whole entry): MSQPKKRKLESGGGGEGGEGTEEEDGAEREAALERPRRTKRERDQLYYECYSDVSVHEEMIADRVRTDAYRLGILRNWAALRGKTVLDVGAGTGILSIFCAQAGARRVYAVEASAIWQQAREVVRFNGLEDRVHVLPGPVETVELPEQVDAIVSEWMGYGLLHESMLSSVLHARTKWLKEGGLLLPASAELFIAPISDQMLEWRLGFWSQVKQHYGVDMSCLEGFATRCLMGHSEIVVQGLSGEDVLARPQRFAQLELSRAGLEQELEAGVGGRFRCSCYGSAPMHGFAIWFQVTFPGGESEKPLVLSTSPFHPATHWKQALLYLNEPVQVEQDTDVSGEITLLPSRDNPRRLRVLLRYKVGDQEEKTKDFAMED
Procedure: as §1
The test compound, reference compound, or water (control) were incubated for 120 min at 22°C with 10 ng human PRMT6 enzyme, 120 nM [^3H]SAM and 25 nM Histone H3 full length in a buffer containing 45 mM Tris-HCl (pH 8), 45 mM NaCl, 4.5 mM MgCl2 and 3.6 mM DTT.
as §2
The results are expressed as a percent inhibition of the control enzyme activity. The standard reference compound is SAH, which is tested in each experiment at several concentrations to obtain a competition curve from which its IC50 is calculated. (lberg et al., 2007, J. Biol. Chem., 283: 3006).

[3] = molecular target: T1, human PRMT4 enzyme (Homo sapiens, UniProt Q86X55); assay: PRMT4 inhibition assay (radioactive [3H]SAM methyl transfer, filter binding); details: 60 nM [3H]SAM, 25 nM Histone H3 full length, 1 h at 22°C; for IC50: read-out: PRMT4/CARM1 IC50; for inhibition at 100 µM: read-out: PRMT4/CARM1 100µM, percent inhibition of the control enzyme activity; for inhibition at 10 µM: read-out: PRMT4/CARM1 10µM, percent inhibition of the control enzyme activity
T1 sequence (Q86X55 1-608): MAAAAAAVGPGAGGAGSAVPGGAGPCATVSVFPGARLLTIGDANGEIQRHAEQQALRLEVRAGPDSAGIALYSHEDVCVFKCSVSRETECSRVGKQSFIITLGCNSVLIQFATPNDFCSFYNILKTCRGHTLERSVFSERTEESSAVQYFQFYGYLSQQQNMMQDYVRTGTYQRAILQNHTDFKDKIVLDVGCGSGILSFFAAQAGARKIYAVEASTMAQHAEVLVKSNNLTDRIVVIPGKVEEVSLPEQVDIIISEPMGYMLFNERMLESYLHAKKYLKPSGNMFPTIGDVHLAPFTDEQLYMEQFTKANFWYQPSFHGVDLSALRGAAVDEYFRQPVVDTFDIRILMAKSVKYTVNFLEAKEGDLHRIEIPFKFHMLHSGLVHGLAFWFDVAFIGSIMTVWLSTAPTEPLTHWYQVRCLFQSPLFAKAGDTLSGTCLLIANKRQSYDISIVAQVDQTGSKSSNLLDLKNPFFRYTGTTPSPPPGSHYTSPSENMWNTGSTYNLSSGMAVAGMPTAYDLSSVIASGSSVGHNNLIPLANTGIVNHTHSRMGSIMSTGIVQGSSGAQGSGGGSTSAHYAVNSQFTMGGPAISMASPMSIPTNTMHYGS
Procedure: as §1
The test compound, reference compound, or water (control) were incubated for 1 h at 22°C with 2.5 ng human PRMT4 enzyme, 60 nM [^3H]SAM and 25 nM Histone H3 full length in a buffer containing 45 mM Tris-HCl (pH 8), 45 mM NaCl, 4.5 mM MgCl2 and 3.6 mM DTT.
as §2
(§3) The results are expressed as a percent inhibition of the control enzyme activity. The standard reference compound is SAH, which is tested in each experiment at several concentrations to obtain a competition curve from which its IC50 is calculated (Selvi et al., 2010, J. Biol. Chem., 285: 7143).

[4] = molecular target: T2, human PRMT7 enzyme (Homo sapiens, UniProt Q9NVM4); assay: PRMT7 inhibition assay (radioactive [3H]SAM methyl transfer, filter binding); details: 250 nM [3H]SAM, 4 nM Histone H2B (21-41) biotin labelled, 90 min at 22°C; for inhibition at 100 µM: read-out: PRMT7 100µM, percent inhibition of the control enzyme activity; for inhibition at 10 µM: read-out: PRMT7 10µM, percent inhibition of the control enzyme activity
T2 sequence (Q9NVM4 1-692): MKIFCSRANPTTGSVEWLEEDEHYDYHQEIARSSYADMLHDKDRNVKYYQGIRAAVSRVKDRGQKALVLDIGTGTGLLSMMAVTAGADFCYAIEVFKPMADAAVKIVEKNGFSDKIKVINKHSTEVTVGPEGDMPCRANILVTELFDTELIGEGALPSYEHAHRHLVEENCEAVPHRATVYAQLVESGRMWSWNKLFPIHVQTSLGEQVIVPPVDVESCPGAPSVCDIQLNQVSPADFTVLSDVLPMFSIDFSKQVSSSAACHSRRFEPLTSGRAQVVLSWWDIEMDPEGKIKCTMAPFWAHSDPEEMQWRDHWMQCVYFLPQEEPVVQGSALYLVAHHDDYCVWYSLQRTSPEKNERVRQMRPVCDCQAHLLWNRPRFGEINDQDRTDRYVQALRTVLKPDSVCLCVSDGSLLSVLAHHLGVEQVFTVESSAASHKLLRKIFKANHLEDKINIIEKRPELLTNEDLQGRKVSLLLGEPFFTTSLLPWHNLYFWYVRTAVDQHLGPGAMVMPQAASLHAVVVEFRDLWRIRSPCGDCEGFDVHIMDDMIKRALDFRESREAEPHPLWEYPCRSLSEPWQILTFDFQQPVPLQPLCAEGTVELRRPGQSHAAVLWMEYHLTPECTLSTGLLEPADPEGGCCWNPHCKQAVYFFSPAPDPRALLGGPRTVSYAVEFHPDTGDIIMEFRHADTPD
Procedure: as §1
The test compound, reference compound, or water (control) were incubated for 90 min at 22°C with 12.5 ng human PRMT7 enzyme, 250 nM [^3H]SAM and 4 nM Histone H2B (21-41) biotin labelled in a buffer containing 45 mM Tris-HCl (pH 8.7), 0.0045% Tween20, 0.009% HSA and 0.9 mM DTT.
as §2
as §3, with “(Zurita-Lopez” for “(Selvi”, “2012,” for “2010,”, “287(11):7859).” for “285: 7143).”

| Molecule | IC50 [3] [µM] | inhibition at 100 µM ([3]; compound at 100µM) [%] | inhibition at 100 µM ([4]; compound at 100µM) [%] | inhibition at 100 µM [1] [%] | inhibition at 10 µM [2] [%] | inhibition at 100 µM ([2]; compound at 100µM) [%] | inhibition at 10 µM ([3]; compound at 10µM) [%] | inhibition at 10 µM ([4]; compound at 10µM) [%] | other results |
| --- | --- | --- | --- | --- | --- | --- | --- | --- | --- |
| 1-(methoxymethyl)-5-(N-(5'-deoxyadenosin-5'-yl)aminomethyl)cytosine | 1.9 | – | – | – | – | – | – | – | PRMT1 100µM, percent inhibition of the control enzyme activity [1]: 13%; PRMT6 100µM, percent inhibition of the control enzyme activity ([2]; compound at 100µM): 20%; PRMT4/CARM1 10µM, percent inhibition of the control enzyme activity ([3]; compound at 10µM): 81%; PRMT4/CARM1 100µM, percent inhibition of the control enzyme activity ([3]; compound at 100µM): 99%; PRMT7 10µM, percent inhibition of the control enzyme activity ([4]; compound at 10µM): 33%; PRMT7 100µM, percent inhibition of the control enzyme activity ([4]; compound at 100µM): 89% |
| COCn1cc(CNC[C@H]2O[C@@H](n3cnc4c(N)ncnc43)[C@H](O)[C@@H]2O)c(N)nc1=O [Compound A, 1-(methoxymethyl)-5-(N-(5'-deoxyadenosin-5'-yl)aminomethyl)cytosine 5'-deoxy-5'-((1-(methoxymethyl)cytosin-5-yl)methylamino)adenosine] | – | 21 | 12 | – | – | – | – | – | – |
| COCn1cc(CN(CCC(N)C(=O)O)CC2OC(n3cnc4c(N)ncnc43)C(O)C2O)c(N)nc1=O (centres unmarked) [Compound B] | – | 59 | 81 | 24 | 3 | 61 | 21 | 30 | – |

Continued, in another order:

| IC50 [3] [µM] | inhibition at 100 µM ([3]; compound at 100µM) [%] | inhibition at 100 µM ([4]; compound at 100µM) [%] | inhibition at 100 µM [1] [%] | inhibition at 10 µM [2] [%] | inhibition at 100 µM ([2]; compound at 100µM) [%] | inhibition at 10 µM ([3]; compound at 10µM) [%] | inhibition at 10 µM ([4]; compound at 10µM) [%] | Molecule | other results |
| --- | --- | --- | --- | --- | --- | --- | --- | --- | --- |
| 14 | 88 | 83 | 42 | 8 | 47 | 54 | 46 | COCn1cc(CN(CCC(N)C(=O)O)CCC2OC(n3cnc4c(N)ncnc43)C(O)C2O)c(N)nc1=O (centres unmarked) [D] | – |
| – | – | – | – | – | – | 35 | – | Nc1nc(=O)n(CCOc2ccccc2)cc1CNCCC1OC(n2cnc3c(N)ncnc32)C(O)C1O (centres unmarked) [E, 5'-deoxy-5'-(N-((1-(2-(4-phenoxy)ethyl)-cytosin-5-yl)methyl)-aminomethyl) adenosine] | – |
| – | – | – | – | – | – | 43 | – | Nc1nc(=O)n(CCOc2ccc(Br)cc2)cc1CNCC[C@H]1O[C@@H](n2cnc3c(N)ncnc32)[C@H](O)[C@@H]1O [F, 5'-deoxy-5'-(N-((1-(2-(4-bromophenoxy)ethyl)-cytosin-5-yl)methyl)-aminomethyl) adenosine] | – |
